What all share (assay): Kinase profiling
Common to all, as to type: biochemical

One assay deals with T1, AURORA-A (Homo sapiens, UniProt O14965).
T1 construct: purchased Ambit KINOMEscan
T1 sequence (O14965 1-403): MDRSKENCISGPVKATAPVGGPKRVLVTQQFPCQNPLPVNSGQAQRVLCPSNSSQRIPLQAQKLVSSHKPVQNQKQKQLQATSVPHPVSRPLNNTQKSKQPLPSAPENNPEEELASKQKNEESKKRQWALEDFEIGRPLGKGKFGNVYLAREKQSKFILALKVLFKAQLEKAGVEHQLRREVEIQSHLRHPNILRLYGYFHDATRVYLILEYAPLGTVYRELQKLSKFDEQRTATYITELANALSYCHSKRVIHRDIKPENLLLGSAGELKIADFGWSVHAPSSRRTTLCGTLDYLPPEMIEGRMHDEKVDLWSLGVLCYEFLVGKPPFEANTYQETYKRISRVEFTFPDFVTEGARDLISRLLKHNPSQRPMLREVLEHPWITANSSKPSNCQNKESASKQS
Particulars: read-out: Percent inhibition, AURORA-A; for inhibition at 1 µM: Conc 1000 nM. An excerpt:
(§1) ; Fig. 5a; Supplementary Table 1). We focused on Dyrk1a because other kinases inhibited by aminopyrazine compounds were not highly expressed in β-cells and because Dyrk1a was known to inhibit the NFAT pathway that was previously implicated in β-cell proliferation. We used molecular modelling to dock the aminopyrazine compounds into the published structure of Dyrk1a (protein databank accession code 2vx3.pdb; Fig. 5b).

The next assay concerns the target T2, MAPK1 (ERK2) (Homo sapiens, UniProt P28482).
T2 construct: purchased Ambit (KINOMEscan)
As to conditions: Conc 1000 nM; read-out: Percent inhibition, MAPK1 (ERK2).
Source text: as §1

In the next assay the target is T3, ALK (Homo sapiens, UniProt Q9UM73).
T3 construct: purchased Ambit KINOMEscan
Particulars: read-out: Percent inhibition, ALK; for inhibition at 1 µM: Conc 1000 nM.
Source text: as §1

The next assay concerns the target T4, p70S6K1 (Homo sapiens, UniProt P23443).
T4 construct: purchased Ambit (KINOMEscan)
Particulars: Conc 1000 nM; read-out: Percent inhibition, p70S6K1.
Source text: as §1

For another assay, the target named is T5, Abl (Homo sapiens, UniProt P00519).
T5 construct: purchased Ambit KINOMEscan
Particulars: Conc 1000 nM; read-out: Percent inhibition, Abl.
Source text: as §1

A further assay concerns the target T6, CK1a (Homo sapiens, UniProt P48729).
T6 construct: purchased Ambit KINOMEscan
As to conditions: Conc 1000 nM; read-out: Percent inhibition, CK1a.
Source text: as §1

A further assay addresses T7, IGF1R (Homo sapiens, UniProt P08069).
T7 construct: purchased Ambit KINOMEscan
As to conditions: Conc 1000 nM; read-out: Percent inhibition, IGF1R.
Source text: as §1

The target in the next assay is T8, BMX (Homo sapiens, UniProt P51813).
T8 construct: purchased Ambit KINOMEscan
Particulars: Conc 1000 nM; read-out: Percent inhibition, BMX.
Source text: as §1

Another assay deals with T9, EGFR (Homo sapiens, UniProt P00533).
T9 construct: purchased Ambit KINOMEscan
As to conditions: Conc 1000 nM; read-out: Percent inhibition, EGFR.
Source text: as §1

A further assay addresses T10, CDK2/cyclinA (Homo sapiens, UniProt P24941).
T10 construct: purchased Ambit KINOMEscan
As to conditions: read-out: Percent inhibition, CDK2/cyclinA; for inhibition at 1 µM: Conc 1000 nM.
Source text: as §1

Another assay has as its target T11, c-Kit (Homo sapiens, UniProt P10721).
T11 construct: purchased Ambit KINOMEscan
Particulars: Conc 1000 nM; read-out: Percent inhibition, c-Kit.
Source text: as §1

Another assay deals with T12, Axl (Homo sapiens, UniProt P30530).
T12 construct: purchased Ambit KINOMEscan
T12 sequence (P30530 26-894): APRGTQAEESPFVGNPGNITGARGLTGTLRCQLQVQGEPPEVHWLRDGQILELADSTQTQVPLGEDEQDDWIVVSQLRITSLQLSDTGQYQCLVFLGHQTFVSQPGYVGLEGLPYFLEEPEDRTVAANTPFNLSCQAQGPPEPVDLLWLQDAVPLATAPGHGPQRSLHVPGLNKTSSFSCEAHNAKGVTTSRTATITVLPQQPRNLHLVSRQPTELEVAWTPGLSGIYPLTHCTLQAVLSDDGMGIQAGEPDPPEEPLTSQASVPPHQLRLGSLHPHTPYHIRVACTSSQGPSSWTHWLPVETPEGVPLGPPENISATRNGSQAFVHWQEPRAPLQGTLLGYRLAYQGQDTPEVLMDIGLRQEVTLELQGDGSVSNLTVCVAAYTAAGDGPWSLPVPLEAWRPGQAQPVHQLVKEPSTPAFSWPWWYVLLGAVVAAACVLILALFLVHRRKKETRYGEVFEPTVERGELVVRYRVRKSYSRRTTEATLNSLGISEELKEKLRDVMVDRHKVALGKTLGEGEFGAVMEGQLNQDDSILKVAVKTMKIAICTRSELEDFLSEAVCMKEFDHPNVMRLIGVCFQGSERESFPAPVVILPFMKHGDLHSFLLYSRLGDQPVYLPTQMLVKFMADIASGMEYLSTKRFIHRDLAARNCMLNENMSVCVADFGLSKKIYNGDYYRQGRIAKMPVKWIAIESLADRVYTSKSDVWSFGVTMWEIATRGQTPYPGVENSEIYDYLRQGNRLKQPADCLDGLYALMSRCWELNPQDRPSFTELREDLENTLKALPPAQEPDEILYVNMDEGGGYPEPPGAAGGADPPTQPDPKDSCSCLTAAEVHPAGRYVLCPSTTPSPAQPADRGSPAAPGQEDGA
Particulars: read-out: Percent inhibition, Axl; for inhibition at 1 µM: Conc 1000 nM.
Source text: as §1

The next assay concerns the target T13, PIM-2 (Homo sapiens, UniProt Q9P1W9).
T13 construct: purchased Ambit (KINOMEscan)
As to conditions: Conc 1000 nM; read-out: Percent inhibition, PIM-2.
Source text: as §1

Another assay concerns the target T14, SRC (Homo sapiens, UniProt P12931).
T14 construct: purchased Ambit (KINOMEscan)
Particulars: Conc 1000 nM; read-out: Percent inhibition, SRC.
Source text: as §1

Another assay deals with T15, ROCK1 (Homo sapiens, UniProt Q13464).
T15 construct: purchased Ambit (KINOMEscan)
As to conditions: Conc 1000 nM; read-out: Percent inhibition, ROCK1.
Source text: as §1

The target in another assay is T16, SGK1 (Homo sapiens, UniProt O00141).
T16 construct: purchased Ambit (KINOMEscan)
Particulars: Conc 1000 nM; read-out: Percent inhibition, SGK1.
Source text: as §1

The next assay addresses T17, PDGFRa (Homo sapiens, UniProt P16234).
T17 construct: purchased Ambit (KINOMEscan)
Particulars: read-out: Percent inhibition, PDGFRa; for inhibition at 1 µM: Conc 1000 nM.
Source text: as §1

Consider two compounds from publication PMC4639830, “Inhibition of DYRK1A and GSK3B induces human β-cell proliferation” (Nature Communications, 2015).

T17 sequence (P16234 24-1089): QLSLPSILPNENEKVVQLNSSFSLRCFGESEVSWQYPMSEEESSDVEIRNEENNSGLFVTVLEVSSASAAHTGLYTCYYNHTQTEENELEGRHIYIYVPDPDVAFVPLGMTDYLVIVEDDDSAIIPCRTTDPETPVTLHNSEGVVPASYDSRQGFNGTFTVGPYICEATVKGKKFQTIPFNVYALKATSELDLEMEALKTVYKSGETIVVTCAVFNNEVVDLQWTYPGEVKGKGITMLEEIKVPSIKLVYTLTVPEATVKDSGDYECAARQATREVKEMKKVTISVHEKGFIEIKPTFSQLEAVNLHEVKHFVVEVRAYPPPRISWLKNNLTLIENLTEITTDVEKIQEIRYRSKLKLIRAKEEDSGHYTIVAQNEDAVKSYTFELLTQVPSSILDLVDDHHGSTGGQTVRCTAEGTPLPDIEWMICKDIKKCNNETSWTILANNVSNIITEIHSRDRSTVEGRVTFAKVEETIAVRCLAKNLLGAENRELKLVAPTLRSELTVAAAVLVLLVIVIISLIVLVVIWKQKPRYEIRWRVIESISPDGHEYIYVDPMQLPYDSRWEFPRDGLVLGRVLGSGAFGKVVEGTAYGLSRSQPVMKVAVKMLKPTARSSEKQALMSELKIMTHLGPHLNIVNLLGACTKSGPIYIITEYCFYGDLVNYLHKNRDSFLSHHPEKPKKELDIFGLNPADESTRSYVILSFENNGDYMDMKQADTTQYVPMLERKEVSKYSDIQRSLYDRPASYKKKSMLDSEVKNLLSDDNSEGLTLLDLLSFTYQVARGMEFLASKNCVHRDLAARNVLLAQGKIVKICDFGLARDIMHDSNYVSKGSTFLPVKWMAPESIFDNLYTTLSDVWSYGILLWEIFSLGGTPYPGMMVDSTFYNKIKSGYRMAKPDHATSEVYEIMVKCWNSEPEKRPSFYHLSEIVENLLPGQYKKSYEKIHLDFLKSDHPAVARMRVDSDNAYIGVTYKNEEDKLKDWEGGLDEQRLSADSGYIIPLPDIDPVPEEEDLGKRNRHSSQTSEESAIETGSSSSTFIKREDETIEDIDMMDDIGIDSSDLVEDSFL
T3 sequence (Q9UM73 19-1620): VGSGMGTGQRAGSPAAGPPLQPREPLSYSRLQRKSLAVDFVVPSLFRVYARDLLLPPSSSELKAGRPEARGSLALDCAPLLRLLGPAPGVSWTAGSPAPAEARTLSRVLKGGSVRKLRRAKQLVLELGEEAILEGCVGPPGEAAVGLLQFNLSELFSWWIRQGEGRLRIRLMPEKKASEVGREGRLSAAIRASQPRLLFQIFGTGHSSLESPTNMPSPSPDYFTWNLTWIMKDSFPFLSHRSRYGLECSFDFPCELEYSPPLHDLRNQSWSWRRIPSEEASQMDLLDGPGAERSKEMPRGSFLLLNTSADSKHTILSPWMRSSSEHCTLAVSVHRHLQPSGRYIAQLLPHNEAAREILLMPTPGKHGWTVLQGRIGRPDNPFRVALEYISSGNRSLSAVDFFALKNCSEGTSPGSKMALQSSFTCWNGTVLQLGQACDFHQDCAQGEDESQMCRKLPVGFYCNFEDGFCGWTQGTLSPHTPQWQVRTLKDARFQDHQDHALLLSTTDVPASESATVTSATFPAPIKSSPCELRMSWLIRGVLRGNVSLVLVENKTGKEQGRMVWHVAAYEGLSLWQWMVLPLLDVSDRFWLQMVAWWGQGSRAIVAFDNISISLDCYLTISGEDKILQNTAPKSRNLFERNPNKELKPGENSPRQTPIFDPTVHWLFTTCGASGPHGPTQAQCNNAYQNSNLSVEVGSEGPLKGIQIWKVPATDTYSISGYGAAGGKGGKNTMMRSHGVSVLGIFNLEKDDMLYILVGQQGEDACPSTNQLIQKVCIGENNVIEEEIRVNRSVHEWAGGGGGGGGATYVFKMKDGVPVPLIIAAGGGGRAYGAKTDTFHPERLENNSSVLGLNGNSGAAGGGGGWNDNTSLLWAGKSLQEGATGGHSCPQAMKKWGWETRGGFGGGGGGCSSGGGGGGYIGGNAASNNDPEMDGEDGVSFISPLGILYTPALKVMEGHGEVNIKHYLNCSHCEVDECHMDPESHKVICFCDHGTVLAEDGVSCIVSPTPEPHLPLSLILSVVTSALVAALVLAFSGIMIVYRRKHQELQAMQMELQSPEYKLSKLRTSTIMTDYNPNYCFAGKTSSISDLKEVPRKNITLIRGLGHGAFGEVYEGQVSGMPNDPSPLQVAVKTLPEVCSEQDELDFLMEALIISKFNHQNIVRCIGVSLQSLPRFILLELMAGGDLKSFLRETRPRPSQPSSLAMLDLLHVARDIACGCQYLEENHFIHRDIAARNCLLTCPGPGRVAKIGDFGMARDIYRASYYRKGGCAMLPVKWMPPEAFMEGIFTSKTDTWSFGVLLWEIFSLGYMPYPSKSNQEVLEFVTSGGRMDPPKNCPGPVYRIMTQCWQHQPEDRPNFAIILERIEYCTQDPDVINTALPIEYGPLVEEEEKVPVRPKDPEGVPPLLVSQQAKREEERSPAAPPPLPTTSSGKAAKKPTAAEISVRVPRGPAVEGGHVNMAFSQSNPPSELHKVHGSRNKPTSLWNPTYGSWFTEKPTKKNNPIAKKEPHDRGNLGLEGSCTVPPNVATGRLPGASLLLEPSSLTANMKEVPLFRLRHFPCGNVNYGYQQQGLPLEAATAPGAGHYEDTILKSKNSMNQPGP
T13 sequence (Q9P1W9 whole entry): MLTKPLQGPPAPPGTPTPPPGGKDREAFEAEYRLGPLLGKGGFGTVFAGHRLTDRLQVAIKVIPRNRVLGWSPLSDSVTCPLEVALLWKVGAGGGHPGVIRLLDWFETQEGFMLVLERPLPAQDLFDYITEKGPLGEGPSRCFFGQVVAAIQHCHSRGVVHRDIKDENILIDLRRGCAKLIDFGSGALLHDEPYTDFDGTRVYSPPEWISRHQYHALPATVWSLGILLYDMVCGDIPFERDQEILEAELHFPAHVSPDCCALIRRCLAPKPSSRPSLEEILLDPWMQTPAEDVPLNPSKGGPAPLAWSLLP
T5 sequence (P00519 whole entry): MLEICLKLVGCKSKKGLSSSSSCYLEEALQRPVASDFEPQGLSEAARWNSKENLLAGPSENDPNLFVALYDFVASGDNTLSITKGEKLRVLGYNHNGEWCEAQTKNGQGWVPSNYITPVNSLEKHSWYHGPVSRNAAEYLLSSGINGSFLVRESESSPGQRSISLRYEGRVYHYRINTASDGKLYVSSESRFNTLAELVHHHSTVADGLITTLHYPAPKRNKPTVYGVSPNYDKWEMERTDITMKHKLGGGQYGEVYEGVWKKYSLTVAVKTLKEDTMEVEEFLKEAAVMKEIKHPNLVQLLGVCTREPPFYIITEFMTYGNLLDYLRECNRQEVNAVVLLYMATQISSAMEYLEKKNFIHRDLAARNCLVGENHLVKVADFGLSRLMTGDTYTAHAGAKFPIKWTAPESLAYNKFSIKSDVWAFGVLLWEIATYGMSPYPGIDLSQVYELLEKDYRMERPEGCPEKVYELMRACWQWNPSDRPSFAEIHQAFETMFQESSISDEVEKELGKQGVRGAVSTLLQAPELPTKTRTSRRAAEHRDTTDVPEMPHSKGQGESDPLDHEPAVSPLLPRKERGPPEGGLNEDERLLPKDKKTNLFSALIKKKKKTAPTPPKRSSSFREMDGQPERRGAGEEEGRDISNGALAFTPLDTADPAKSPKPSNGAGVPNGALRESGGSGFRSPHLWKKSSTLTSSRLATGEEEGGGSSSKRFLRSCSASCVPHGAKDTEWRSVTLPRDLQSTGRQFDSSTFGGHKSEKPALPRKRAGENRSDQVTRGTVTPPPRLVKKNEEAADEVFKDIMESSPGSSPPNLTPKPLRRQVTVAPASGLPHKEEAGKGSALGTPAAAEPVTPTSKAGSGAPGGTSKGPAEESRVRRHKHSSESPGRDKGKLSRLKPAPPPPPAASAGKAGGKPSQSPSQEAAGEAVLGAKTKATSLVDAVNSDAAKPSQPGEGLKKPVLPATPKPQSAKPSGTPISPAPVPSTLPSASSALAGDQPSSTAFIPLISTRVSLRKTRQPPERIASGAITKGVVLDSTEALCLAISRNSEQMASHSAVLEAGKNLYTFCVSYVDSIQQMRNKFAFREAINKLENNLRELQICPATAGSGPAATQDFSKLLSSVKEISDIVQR
T8 sequence (P51813 whole entry): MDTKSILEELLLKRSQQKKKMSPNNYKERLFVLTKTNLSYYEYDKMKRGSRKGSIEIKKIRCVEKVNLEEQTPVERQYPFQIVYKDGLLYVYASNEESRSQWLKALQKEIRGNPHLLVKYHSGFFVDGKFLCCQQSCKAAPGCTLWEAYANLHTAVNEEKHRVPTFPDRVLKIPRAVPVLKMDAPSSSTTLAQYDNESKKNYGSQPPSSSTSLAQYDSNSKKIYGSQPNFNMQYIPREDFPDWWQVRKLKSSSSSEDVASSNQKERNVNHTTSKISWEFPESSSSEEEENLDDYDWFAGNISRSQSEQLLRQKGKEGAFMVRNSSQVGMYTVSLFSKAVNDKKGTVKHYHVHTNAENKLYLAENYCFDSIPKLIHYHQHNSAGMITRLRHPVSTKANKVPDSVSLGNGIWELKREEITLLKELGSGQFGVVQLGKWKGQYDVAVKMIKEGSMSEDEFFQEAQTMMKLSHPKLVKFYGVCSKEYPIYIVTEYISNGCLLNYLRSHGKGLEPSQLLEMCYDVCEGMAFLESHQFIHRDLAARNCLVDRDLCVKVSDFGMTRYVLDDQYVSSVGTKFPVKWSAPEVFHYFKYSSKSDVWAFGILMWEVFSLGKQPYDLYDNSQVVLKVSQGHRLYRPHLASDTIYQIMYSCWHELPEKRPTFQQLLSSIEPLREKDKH

Take `CC(C)Oc1ccc(F)c(-c2cnc(N)c(C(=O)Nc3cnccc3N3CCC[C@@H](C(=O)O)C3)n2)c1` [GNF4877]: the inhibition at 0.2 µM on AURORA-A (Conc 200 nM) was determined as 0%; on ALK (Conc 200 nM), 35%; on CDK2/cyclinA (Conc 200 nM) it was 67%; at Axl (Conc 200 nM), 74%; on PDGFRa (Conc 200 nM) it was 0%. Besides, the inhibition at 1 µM on AURORA-A turned out to be 84%; on MAPK1 (ERK2), 7%; on ALK, 96%; at p70S6K1, 75%; on Abl, 66%; on CK1a, 89%. The inhibition at 1 µM at IGF1R turned out to be 49%; on BMX it was 43%; on EGFR, 44%; at CDK2/cyclinA, 95%; at c-Kit, 77%; at Axl, 94%. Moreover, the inhibition at 1 µM turned out to be 31% at PIM-2; 64% at SRC; 36% at ROCK1; 67% at SGK1; 88% on PDGFRa.

Take `Nc1ncc(-c2ccccc2)nc1C(=O)Nc1cnccc1N1CCC(C(=O)O)CC1` [GNF7156]: the inhibition at 1 µM on AURORA-A came out at 95%; on MAPK1 (ERK2), 6%; on ALK, 71%; on p70S6K1, 50%; on Abl, 90%; on CK1a, 42%. Also, the inhibition at 1 µM at IGF1R amounted to 19%; on BMX it was 88%; at EGFR it was 71%; at CDK2/cyclinA, 90%; at c-Kit, 49%; at Axl, 88%. Moreover, the inhibition at 1 µM at PIM-2 came to 60%; on SRC, 61%; at ROCK1, 9%; at SGK1, 39%; on PDGFRa it was 78%.
